Patent US20140377289A1, “Metallodrugs Having Improved Pharmacological Properties, and Methods of Manufacture and Use Thereof” (MetalloPharm, LLC, priority 2011, published 2014)
Where two headings read alike, the source gives them in different places. Where a SMILES comes first, the peptide text is derived from it.

Legend:
[1] = target: T1, Recombinant human somatic ACE (sACE-1) (Homo sapiens, UniProt P12821); test: Determination of IC50 values, sACE-1 fluorogenic substrate cleavage; format: biochemical
T1 construct: sACE-1: Leu30-Leu1261, with C-terminal His tag; His tag (C); purchased R&D Systems; host or cells: NS0-derived murine myeloma cell line
T1 sequence (P12821 30-1261): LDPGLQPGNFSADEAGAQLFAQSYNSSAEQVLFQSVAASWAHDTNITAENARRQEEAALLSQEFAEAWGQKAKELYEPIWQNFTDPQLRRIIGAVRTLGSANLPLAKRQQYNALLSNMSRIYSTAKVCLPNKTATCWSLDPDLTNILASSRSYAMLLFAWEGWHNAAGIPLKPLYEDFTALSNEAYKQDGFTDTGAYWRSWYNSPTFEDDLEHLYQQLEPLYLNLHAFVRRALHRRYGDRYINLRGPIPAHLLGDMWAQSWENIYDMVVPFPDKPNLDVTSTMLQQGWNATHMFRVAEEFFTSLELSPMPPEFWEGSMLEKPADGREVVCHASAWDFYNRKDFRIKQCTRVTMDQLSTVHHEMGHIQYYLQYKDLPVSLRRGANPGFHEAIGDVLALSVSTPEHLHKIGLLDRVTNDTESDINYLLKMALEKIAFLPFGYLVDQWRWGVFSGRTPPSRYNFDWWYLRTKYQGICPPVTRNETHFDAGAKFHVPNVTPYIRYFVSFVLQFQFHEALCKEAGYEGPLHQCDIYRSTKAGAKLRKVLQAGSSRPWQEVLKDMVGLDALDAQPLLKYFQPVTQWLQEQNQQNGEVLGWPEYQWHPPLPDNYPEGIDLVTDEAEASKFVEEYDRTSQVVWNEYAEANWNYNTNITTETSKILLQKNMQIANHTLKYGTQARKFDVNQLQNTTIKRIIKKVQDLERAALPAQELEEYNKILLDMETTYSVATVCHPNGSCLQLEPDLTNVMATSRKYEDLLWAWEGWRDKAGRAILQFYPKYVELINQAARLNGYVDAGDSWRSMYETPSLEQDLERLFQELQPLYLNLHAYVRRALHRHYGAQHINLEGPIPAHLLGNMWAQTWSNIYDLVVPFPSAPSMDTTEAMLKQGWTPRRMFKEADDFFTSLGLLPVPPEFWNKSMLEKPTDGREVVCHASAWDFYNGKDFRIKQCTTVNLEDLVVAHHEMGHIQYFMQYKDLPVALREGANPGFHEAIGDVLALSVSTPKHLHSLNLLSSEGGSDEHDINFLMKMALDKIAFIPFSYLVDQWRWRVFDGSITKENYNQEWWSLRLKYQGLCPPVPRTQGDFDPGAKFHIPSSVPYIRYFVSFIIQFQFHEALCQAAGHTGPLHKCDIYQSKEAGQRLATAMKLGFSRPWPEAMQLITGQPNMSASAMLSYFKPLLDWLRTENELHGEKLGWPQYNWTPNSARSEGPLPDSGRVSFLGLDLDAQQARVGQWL

[2] = target: T1, Recombinant human somatic ACE (sACE-1); test: Time-dependent inactivation of sACE-1; format: biochemical; conditions: pH 7.4, 37° C.
Method: Time-Dependent Inactivation of sACE-1. sACE-1 and each M-chelate-lisinopril complex (prepared in the absence of Zn^2+) were preincubated for 20 min at 37° C. in a buffer containing 50 mM HEPES, 300 mM NaCl, 10 μM ZnCl2, 0.05% Brij35, pH 7.4, and after 20 min, coreactants ascorbate and/or H2O2 (or no coreactants) were added to initiate each reaction. Reaction concentrations were 1 nM sACE-1, a concentration of M-chelate-lisinopril that gave approximately 80% activity (calculated by use of equation (1), where A=80%; concentrations listed in the table in paragraph [00132]), and 1 mM ascorbate and/or H2O2 (or no coreactants). Each time-dependent ACE-inactivation reaction proceeded at 37° C. for a period of 2 h, and at each specific intervening time point, a 68.6 μL, aliquot of the reaction mixture containing sACE-1 was mixed with 1.4 μL of 0.5 mM fluorogenic substrate in a fluorescence cuvette. Substrate cleavage by sACE-1 was immediately monitored by real-time fluorimetry at 37° C., with excitation at 320 nm and emission at 405 nm. Initial rates were determined for each time point for the time-dependent inactivation of sACE-1, and these initial rates were expressed as a percentage (% maximal activity) of the average of several initial rates for uninhibited substrate cleavage by sACE-1, determined in the absence of both M-chelate-lisinopril complexes and coreactants. Plots of % maximal activity vs. time were fit to a first-order exponential decay model, and initial rates of inactivation of sACE-1 by M-chelate-lisinopril complexes were determined. Second-order rate constants for inactivation of sACE-1 were obtained using equation (2), where k2 is the second-order rate constant (M^−1 min^−1), R is the initial rate of enzyme inactivation (M/min) after subtraction of the corresponding background rate in the absence of M-chelate-lisinopril complex, but with the same coreactants, [I] is the concentration of M-chelate-lisinopril complex used (M), and [E] is the concentration of sACE-1 used (1×10^−9 M). Control experiments with M-chelate complexes lacking attached lisinopril were performed in the same manner and conditions used for the respective M-chelate-lisinopril complexes.

pUC19 plasmid DNA = test: DNA nicking and linearization nuclease assay; format: biochemical; conditions: 10 μM base pairs pUC19, ascorbate/peroxide; for klin for DNA linearization, without attached Rev (M-chelate) / knick for DNA nicking, without attached Rev (M-chelate): — = Below detection limit; for klin for DNA linearization, with attached Rev (M-chelate-REV) / knick for DNA nicking, with attached Rev (M-chelate-REV): 100 nM M-chelate-Rev
[3] = system: HCV RNA replicon in ET (luc-ubi-neo/ET) Huh7 cells; conditions: read-out: antiviral IC50; 72 h, replicon-derived Luc activity
in vitro = conditions: human
HIV RRE RNA (AP-RRE RNA) = format: binding; conditions: for Kd: 37° C., pH 7.4
Method: Determination of Dissociation Constants. […] A 660 μL volume of 100 nM AP-RRE RNA was first heated to 90° C. for 5 min and then allowed to cool to, but not below, the titration temperature (37° C.). A 650 μL volume of this sample was added to the pre-thermostatted cuvette. After 10 min of temperature equilibration a solution of 5 μM M-chelate-Rev complex was titrated into the solution. After each addition, 100 μL of the solution was mixed by gentle pipeting to ensure complete mixing. The fluorescence change associated with the change of environment of the aminopurine label was monitored following peptide binding. Titration response curves were dilution and background corrected and normalized to initial intensity values. Curves were fit to a biphasic equation (4) for two independent binding sites where Fobs is the total observed fluorescence intensity, P0 is the total concentration of added M-chelate-Rev, F0, F1, and F2 are fitting parameters corresponding to the intensities of the unbound, singly-bound, and doubly-bound AP-RNA, respectively, R0 is the initial concentration of AP-RNA, and KD1 and KD2 are dissociation constants for binding at the high- and low-affinity sites, respectively. All binding experiments were performed in a binding buffer composed of 20 mM HEPES, 100 mM NaCl, pH 7.4.

[4] = system: 5′ fluorescein end-labeled RRE stem IIB RNA (Fl-RNA); test: PAGE analysis of RRE RNA cleavage kinetics; format: biochemical, HIV; conditions: 100 nM complex, 100 nM Fl-RNA, 1 mM H2O2, 1 mM ascorbate, 37° C.; initial rate
Method: PAGE Analysis of RRE RNA Cleavage Kinetics. Reactions of 100 nM metal-chelate-Rev (1:1.2 M:chelate ratio), 1 mM H2O2, 1 mM ascorbate, and 100 nM 5′ fluorescein end-labeled RRE stem IIB RNA (Fl-RNA) were conducted at 37° C. in separate tubes, each containing 20 μL total reaction volume—one tube corresponding to one gel lane. A buffer consisting of 20 mM HEPES, 100 mM NaCl, pH 7.4 was used in all experiments. Fl-RNA was heated to 90° C. and allowed to cool to, but not below 37° C. prior to reaction, and the Fl-RNA was immediately added to each pre-incubated tube. Reactants were added to pre-incubated tubes at time-points corresponding to the beginning of each reaction, which were performed in a dark incubator. Reaction start times were staggered and all reactions were quenched at the same time by addition of a quenching/gel-loading buffer solution (80 μL/tube) consisting of standard 1× tris-EDTA-acetic acid buffer, 8M urea, 20 mM HEPES, 100 mM NaCl. The tubes were then heated to 90° C. for 5 min and a 5 μL aliquot from each tube was then loaded into its corresponding lane of a 10% polyacrylamide 8 M urea gel, resulting in […] Fl-RNA per lane. Gel electrophoresis was performed at 250 V for 1.5 h. Gels were analyzed on a GE Typhoon variable mode imager using 488 nm excitation and a 526 nm single pass emission filter. Bands were quantified with the program ImageQuant. Loss of initial Fl-RNA reactant bands were fit to a first-order reaction equation using the software Origin, and observed rate constants and initial rates were determined. Control reactions with respective metal-chelates lacking the Rev domain were conducted in the same manner.

[5] = system: AP-RNA (aminopurine-labeled RRE RNA); test: Reaction kinetics monitored by real-time fluorimetry, AP-RNA; format: biochemical, HIV; conditions: 100 nM complex, 100 nM AP-RNA, 1 mM H2O2, 1 mM ascorbate, 37° C.; initial rate
Method: Reaction Kinetics Monitored by Real-Time Fluorimetry. Reactions of 100 nM metal-chelate-Rev (1:1.2 M:chelate ratio), 1 mM H2O2, 1 mM ascorbate, and 100 nM AP-RNA were conducted at 37° C. in a fluorescence cuvette in a Varian Cary Eclipse fluorescence spectrophotometer. Reactions were monitored using excitation at 310 nm (SW=10 nm) and emission at 371 nm (SW=10 nm). Prior to reaction the AP-RNA was pre-heated to 90° C. for 5 min and then added to the pre-warmed 37° C. cuvette. The metal-chelate-Rev complexes were added after 5 min, and reactions were initiated by the addition of H2O2 and ascorbate after an additional 10 min. Each resulting fluorescence trace was fit to a first-order reaction equation using the software Origin, and observed rate constants and initial rates were determined; the magnitude of fluorescence change that corresponded to complete reaction was established by averaging the magnitudes of fluorescence change from many trials known to react to completion. All concentrations and buffer were identical to those used in the PAGE analysis assay with Fl-RNA. Control reactions with respective metal-chelates lacking the Rev domain were conducted in the same manner.

HCV protease [6] = target: T2, HCV protease (Hepatitis C virus genotype 1a, UniProt P27958); test: biochemical; format: binding; conditions: apparent binding affinity
T2 sequence (P27958 1027-1208, other chains not shown): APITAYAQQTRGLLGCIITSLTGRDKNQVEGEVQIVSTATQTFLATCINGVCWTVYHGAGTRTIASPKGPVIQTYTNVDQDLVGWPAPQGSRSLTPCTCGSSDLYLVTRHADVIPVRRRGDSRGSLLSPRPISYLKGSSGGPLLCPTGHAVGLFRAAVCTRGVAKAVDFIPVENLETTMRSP
Description: (§1) This stems from the relationship between affinity and the on/off rate constants for binding (KA=kon/koff), where higher affinity binding is promoted by larger kon and/or smaller koff values. By contrast, efficient catalytic turnover requires koff values that are preferably no smaller than the rate constant for the inactivation chemistry (kcat), to ensure the availability of metallodrug catalyst for new target molecules, and will be best promoted by relatively high values for both kon and koff, which will result in weaker KA values.
(§2) Apparent binding affinities and rates of inactivation for HCV protease by several metallopeptide derivatives incorporating a Cu-GGH metal binding domain and C-terminal HCV protease targeting peptides were prepared and their affinity and reactivity were evaluated under in the presence of various redox reagents. Affinities lay within the range of 10^4M^−1 and 5×10^8 M^−1.

HCV protease [7] = target: T2, HCV protease; format: biochemical
Description: as §1, §2

[8] = high-affinity RRE RNA site, read-out: KD1
[9] = low-affinity RRE RNA site, read-out: KD2

| Compound | IC50 [3] [µM] | CC50 at 72 h (in vitro) [µM] | KA1 (HIV RRE RNA (AP-RRE RNA); high-affinity RRE RNA site) | Kd (HIV RRE RNA (AP-RRE RNA); [8]) [nM] | KA2 (HIV RRE RNA (AP-RRE RNA); low-affinity RRE RNA site) | Kd (HIV RRE RNA (AP-RRE RNA); [9]) [nM] | Fl-RNA Cleavage Rate [4] [nM/min] | AP-RNA Modification Rate [5] [nM/min] | klin for DNA linearization, with attached Rev (M-chelate-REV) (pUC19 plasmid DNA) [min⁻¹] | knick for DNA nicking, with attached Rev (M-chelate-REV) (pUC19 plasmid DNA) [min⁻¹] | other results |
| --- | --- | --- | --- | --- | --- | --- | --- | --- | --- | --- | --- |
| NCC(=O)NCC(=O)N[C@@H](Cc1c[nH]cn1)C(=O)O [Cu-GGH] (H-Gly-Gly-His-OH) |  |  |  |  |  |  |  |  |  |  | IC50 [1]: 17 µM; kinact/KI ([2]; pH 7.4, read-out: Second order rate constant for inactivation of sACE-1, M-chelate without lisinopril, Ascorbate + H2O2): 167 M⁻¹ s⁻¹; kinact/KI ([2]; pH 7.4, read-out: Second order rate constant for inactivation of sACE-1, M-chelate without lisinopril, Ascorbate): < 16.7 M⁻¹ s⁻¹; kinact/KI ([2]; pH 7.4, read-out: Second order rate constant for inactivation of sACE-1, M-chelate without lisinopril, H2O2): < 33.3 M⁻¹ s⁻¹; klin for DNA linearization, without attached Rev (M-chelate) (pUC19 plasmid DNA): 0.0012 ± 0.0002 min⁻¹; knick for DNA nicking, without attached Rev (M-chelate) (pUC19 plasmid DNA): 0.06 ± 0.01 min⁻¹ |
| O=C([O-])CN(CC(=O)[O-])CC(=O)O.[Cu+2] [Cu-NTA] |  |  |  |  |  |  |  |  |  |  | IC50 ([1]; 1 nM sACE-1, 20 min preincubation, 37° C., pH 7.4, read-out: IC50's): 36 µM; klin for DNA linearization, without attached Rev (M-chelate) (pUC19 plasmid DNA): 0.0032 ± 0.0004 min⁻¹; knick for DNA nicking, without attached Rev (M-chelate) (pUC19 plasmid DNA): 0.148 ± 0.007 min⁻¹ |
| N=C(N)NCCC[C@@H](NC(=O)[C@@H](N)Cc1ccc(O)cc1)C(=O)N[C@@H](Cc1ccccc1)C(=O)N[C@@H](CCCCN)C(N)=O [YrFK, reference compound] | > 100 | > 100 |  |  |  |  |  |  |  |  |  |
| CC[C@H](C)[C@H](NC(=O)[C@H](CCCCN)NC(=O)[C@H](C)NC(=O)[C@H](CCC(=O)O)NC(=O)[C@H](CC(C)C)NC(=O)[C@H](C)NC(=O)[C@H](C)N)C(=O)N[C@@H](CS)C(=O)N[C@@H](Cc1c[nH]cn1)C(=O)N[C@@H](CCC(N)=O)C(=O)N[C@H](C(=O)N[C@@H](CCC(=O)O)C(=O)N[C@@H](Cc1ccc(O)cc1)C(=O)N[C@@H](Cc1ccc(O)cc1)C(=O)N[C@@H](Cc1ccccc1)C(=O)NCC(=O)N[C@@H](CC(=O)O)C(=O)N[C@@H](Cc1ccccc1)C(N)=O)[C@@H](C)CC [reference compound] (H-AALEAKICHQIEYYFGDF-NH2) | > 100 | > 100 |  |  |  |  |  |  |  |  |  |
| CC[C@H](C)[C@H](NC(=O)[C@H](CC(C)C)NC(=O)[C@H](CC(C)C)NC(=O)[C@H](CC(=O)O)NC(=O)[C@@H](NC(=O)[C@H](CCC(=O)O)NC(=O)[C@H](CCCCN)NC(=O)[C@H](Cc1ccc(O)cc1)NC(=O)[C@@H](N)CCCCN)[C@@H](C)O)C(=O)N[C@@H](CC(C)C)C(=O)N[C@@H](Cc1ccccc1)C(=O)N[C@@H](CCCCN)C(=O)N[C@@H](CC(=O)O)C(=O)N[C@@H](CC(=O)O)C(=O)N[C@@H](Cc1ccc(O)cc1)C(=O)N[C@@H](Cc1ccccc1)C(=O)N[C@@H](C)C(=O)N[C@@H](CCCCN)C(=O)N[C@@H](CCCCN)C(=O)N[C@@H](CC(N)=O)C(=O)N[C@@H](CCC(=O)O)C(=O)N[C@@H](CCC(=O)O)C(=O)N[C@@H](CCCNC(=N)N)C(=O)N[C@@H](CCCCN)C(N)=O [reference compound] (H-KYKETDLLILFKDDYFAKKNEERK-NH2) | > 100 | > 100 |  |  |  |  |  |  |  |  |  |
| Cu complex of DOTA coupled to K-Rev, Ac-KTRQARRNRRRRWRERQR-NH2 [Cu-DOTA-Rev] |  |  | 25 10^8 M^−1 | 0.4 ± 0.1 | 0.02 10^8 M^−1 | 488 ± 9 | 0.8 ± 0.1 | 2.8 ± 0.1 | 0.0025 ± 0.0008 | 0.043 ± 0.007 |  |
| Cu complex of GGH-Rev, GGHTRQARRNRRRRWRERQR-NH2 [Cu-GGH-Rev] |  |  | 25 10^8 M^−1 | 4.6 ± 0.5 | 0.028 10^8 M^−1 | 363 ± 9 | 0.045 ± 0.005 | 0.4 ± 0.3 | 0.0013 ± 0.0001 | 0.069 ± 0.006 |  |
| Cu complex of KGHK-Rev, KGHKTRQARRNRRRRWRERQR-NH2 [Cu-KGHK-Rev] |  |  | 7.7 10^8 M^−1 | 1.3 ± 0.5 | 0.066 10^8 M^−1 | 148 ± 5 | 0.060 ± 0.005 | 0.511 ± 0.003 | 0.0062 ± 0.0006 | 0.17 ± 0.04 |  |
| Cu-GGHGDEMEEC |  |  |  |  |  |  |  |  |  |  | KA (HCV protease [6]): 48000 M⁻¹; rate constant for inactivation kinact (catalytic efficiency) (HCV protease [7]; in the presence of ascorbate/O2): ~1.6 h⁻¹; kinact (HCV protease [7]; in the presence of various redox reagents): 0.04 min⁻¹ |
